± gives the expanded uncertainty stated by the source.
Details: Liquid, Vibrating tube method

CC[n+]1ccccc1C.O=S(=O)([N-]S(=O)(=O)C(F)(F)F)C(F)(F)F
mass density (283.15 K, 100 kPa): 1520.3 ± 0.7 kg/m3
mass density (283.15 K, 2500 kPa): 1522.2 ± 0.7 kg/m3
mass density (283.15 K, 5000 kPa): 1523.8 ± 0.8 kg/m3
mass density (283.15 K, 7500 kPa): 1525.4 ± 0.8 kg/m3
mass density (283.15 K, 10000 kPa): 1527 ± 0.9 kg/m3
mass density (283.15 K, 15000 kPa): 1530.1 ± 1 kg/m3
mass density (283.15 K, 20000 kPa): 1533.1 ± 1.1 kg/m3
mass density (283.15 K, 25000 kPa): 1536 ± 1.2 kg/m3
mass density (283.15 K, 30000 kPa): 1538.8 ± 1.3 kg/m3
mass density (283.15 K, 35000 kPa): 1541.6 ± 1.4 kg/m3
mass density (283.15 K, 45000 kPa): 1546.9 ± 1.7 kg/m3
mass density (283.15 K, 55000 kPa): 1551.8 ± 1.9 kg/m3
mass density (283.15 K, 65000 kPa): 1556.4 ± 2.1 kg/m3
mass density (288.15 K, 100 kPa): 1515.4 ± 0.7 kg/m3
mass density (288.15 K, 2500 kPa): 1517.2 ± 0.7 kg/m3
mass density (288.15 K, 5000 kPa): 1518.9 ± 0.8 kg/m3
mass density (288.15 K, 7500 kPa): 1520.6 ± 0.8 kg/m3
mass density (288.15 K, 10000 kPa): 1522.2 ± 0.9 kg/m3
mass density (288.15 K, 15000 kPa): 1525.3 ± 1 kg/m3
mass density (288.15 K, 20000 kPa): 1528.3 ± 1.1 kg/m3
mass density (288.15 K, 25000 kPa): 1531.3 ± 1.2 kg/m3
mass density (288.15 K, 30000 kPa): 1534.2 ± 1.3 kg/m3
mass density (288.15 K, 35000 kPa): 1536.9 ± 1.4 kg/m3
mass density (288.15 K, 45000 kPa): 1542.2 ± 1.7 kg/m3
mass density (288.15 K, 55000 kPa): 1547.3 ± 1.9 kg/m3
mass density (288.15 K, 65000 kPa): 1552 ± 2.1 kg/m3
mass density (293.15 K, 100 kPa): 1510.5 ± 0.7 kg/m3
mass density (293.15 K, 2500 kPa): 1512.4 ± 0.7 kg/m3
mass density (293.15 K, 5000 kPa): 1514.1 ± 0.8 kg/m3
mass density (293.15 K, 7500 kPa): 1515.7 ± 0.8 kg/m3
mass density (293.15 K, 10000 kPa): 1517.4 ± 0.9 kg/m3
mass density (293.15 K, 15000 kPa): 1520.6 ± 1 kg/m3
mass density (293.15 K, 20000 kPa): 1523.6 ± 1.1 kg/m3
mass density (293.15 K, 25000 kPa): 1526.6 ± 1.2 kg/m3
mass density (293.15 K, 30000 kPa): 1529.5 ± 1.3 kg/m3
mass density (293.15 K, 35000 kPa): 1532.4 ± 1.4 kg/m3
mass density (293.15 K, 45000 kPa): 1537.8 ± 1.6 kg/m3
mass density (293.15 K, 55000 kPa): 1542.9 ± 1.9 kg/m3
mass density (293.15 K, 65000 kPa): 1547.7 ± 2.1 kg/m3
mass density (298.15 K, 100 kPa): 1505.6 ± 0.7 kg/m3
mass density (298.15 K, 2500 kPa): 1507.5 ± 0.7 kg/m3
mass density (298.15 K, 5000 kPa): 1509.2 ± 0.8 kg/m3
mass density (298.15 K, 7500 kPa): 1510.9 ± 0.8 kg/m3
mass density (298.15 K, 10000 kPa): 1512.5 ± 0.9 kg/m3
mass density (298.15 K, 15000 kPa): 1515.8 ± 1 kg/m3
mass density (298.15 K, 20000 kPa): 1519 ± 1.1 kg/m3
mass density (298.15 K, 25000 kPa): 1522 ± 1.2 kg/m3
mass density (298.15 K, 30000 kPa): 1525 ± 1.3 kg/m3
mass density (298.15 K, 35000 kPa): 1527.8 ± 1.4 kg/m3
mass density (298.15 K, 45000 kPa): 1533.3 ± 1.6 kg/m3
mass density (298.15 K, 55000 kPa): 1538.5 ± 1.9 kg/m3
mass density (298.15 K, 65000 kPa): 1543.4 ± 2.1 kg/m3
mass density (303.15 K, 100 kPa): 1500.8 ± 0.7 kg/m3
mass density (303.15 K, 2500 kPa): 1502.7 ± 0.7 kg/m3
mass density (303.15 K, 5000 kPa): 1504.5 ± 0.8 kg/m3
mass density (303.15 K, 7500 kPa): 1506.2 ± 0.8 kg/m3
mass density (303.15 K, 10000 kPa): 1507.9 ± 0.9 kg/m3
mass density (303.15 K, 15000 kPa): 1511.2 ± 1 kg/m3
mass density (303.15 K, 20000 kPa): 1514.3 ± 1.1 kg/m3
mass density (303.15 K, 25000 kPa): 1517.5 ± 1.2 kg/m3
mass density (303.15 K, 30000 kPa): 1520.5 ± 1.3 kg/m3
mass density (303.15 K, 35000 kPa): 1523.4 ± 1.4 kg/m3
mass density (303.15 K, 45000 kPa): 1528.9 ± 1.6 kg/m3
mass density (303.15 K, 55000 kPa): 1534.2 ± 1.8 kg/m3
mass density (303.15 K, 65000 kPa): 1539.2 ± 2.1 kg/m3
mass density (308.15 K, 100 kPa): 1495.9 ± 0.7 kg/m3
mass density (308.15 K, 2500 kPa): 1497.9 ± 0.7 kg/m3
mass density (308.15 K, 5000 kPa): 1499.7 ± 0.8 kg/m3
mass density (308.15 K, 7500 kPa): 1501.4 ± 0.8 kg/m3
mass density (308.15 K, 10000 kPa): 1503.1 ± 0.9 kg/m3
mass density (308.15 K, 15000 kPa): 1506.5 ± 1 kg/m3
mass density (308.15 K, 20000 kPa): 1509.7 ± 1.1 kg/m3
mass density (308.15 K, 25000 kPa): 1512.9 ± 1.2 kg/m3
mass density (308.15 K, 30000 kPa): 1515.9 ± 1.3 kg/m3
mass density (308.15 K, 35000 kPa): 1518.9 ± 1.4 kg/m3
mass density (308.15 K, 45000 kPa): 1524.5 ± 1.6 kg/m3
mass density (308.15 K, 55000 kPa): 1529.9 ± 1.8 kg/m3
mass density (308.15 K, 65000 kPa): 1534.9 ± 2.1 kg/m3
mass density (313.15 K, 100 kPa): 1491.1 ± 0.7 kg/m3
mass density (313.15 K, 2500 kPa): 1493.2 ± 0.7 kg/m3
mass density (313.15 K, 5000 kPa): 1495 ± 0.8 kg/m3
mass density (313.15 K, 7500 kPa): 1496.8 ± 0.8 kg/m3
mass density (313.15 K, 10000 kPa): 1498.5 ± 0.9 kg/m3
mass density (313.15 K, 15000 kPa): 1502 ± 1 kg/m3
mass density (313.15 K, 20000 kPa): 1505.2 ± 1.1 kg/m3
mass density (313.15 K, 25000 kPa): 1508.4 ± 1.2 kg/m3
mass density (313.15 K, 30000 kPa): 1511.5 ± 1.3 kg/m3
mass density (313.15 K, 35000 kPa): 1514.5 ± 1.4 kg/m3
mass density (313.15 K, 45000 kPa): 1520.3 ± 1.6 kg/m3
mass density (313.15 K, 55000 kPa): 1525.7 ± 1.8 kg/m3
mass density (313.15 K, 65000 kPa): 1530.8 ± 2 kg/m3
mass density (318.15 K, 100 kPa): 1486.3 ± 0.7 kg/m3
mass density (318.15 K, 2500 kPa): 1488.4 ± 0.7 kg/m3
mass density (318.15 K, 5000 kPa): 1490.3 ± 0.8 kg/m3
mass density (318.15 K, 7500 kPa): 1492.1 ± 0.8 kg/m3
mass density (318.15 K, 10000 kPa): 1493.8 ± 0.9 kg/m3
mass density (318.15 K, 15000 kPa): 1497.3 ± 1 kg/m3
mass density (318.15 K, 20000 kPa): 1500.6 ± 1.1 kg/m3
mass density (318.15 K, 25000 kPa): 1503.9 ± 1.2 kg/m3
mass density (318.15 K, 30000 kPa): 1507 ± 1.3 kg/m3
mass density (318.15 K, 35000 kPa): 1510.1 ± 1.4 kg/m3
mass density (318.15 K, 45000 kPa): 1515.9 ± 1.6 kg/m3
mass density (318.15 K, 55000 kPa): 1521.4 ± 1.8 kg/m3
mass density (318.15 K, 65000 kPa): 1526.6 ± 2 kg/m3
mass density (323.15 K, 100 kPa): 1481.5 ± 0.7 kg/m3
mass density (323.15 K, 2500 kPa): 1483.7 ± 0.7 kg/m3
mass density (323.15 K, 5000 kPa): 1485.6 ± 0.8 kg/m3
mass density (323.15 K, 7500 kPa): 1487.4 ± 0.8 kg/m3
mass density (323.15 K, 10000 kPa): 1489.2 ± 0.9 kg/m3
mass density (323.15 K, 15000 kPa): 1492.7 ± 1 kg/m3
mass density (323.15 K, 20000 kPa): 1496.2 ± 1.1 kg/m3
mass density (323.15 K, 25000 kPa): 1499.5 ± 1.2 kg/m3
mass density (323.15 K, 30000 kPa): 1502.6 ± 1.3 kg/m3
mass density (323.15 K, 35000 kPa): 1505.7 ± 1.4 kg/m3
mass density (323.15 K, 45000 kPa): 1511.7 ± 1.6 kg/m3
mass density (323.15 K, 55000 kPa): 1517.3 ± 1.8 kg/m3
mass density (323.15 K, 65000 kPa): 1522.5 ± 2 kg/m3
mass density (328.15 K, 100 kPa): 1476.8 ± 0.7 kg/m3
mass density (328.15 K, 2500 kPa): 1478.9 ± 0.7 kg/m3
mass density (328.15 K, 5000 kPa): 1480.8 ± 0.7 kg/m3
mass density (328.15 K, 7500 kPa): 1482.7 ± 0.8 kg/m3
mass density (328.15 K, 10000 kPa): 1484.5 ± 0.8 kg/m3
mass density (328.15 K, 15000 kPa): 1488.1 ± 0.9 kg/m3
mass density (328.15 K, 20000 kPa): 1491.6 ± 1 kg/m3
mass density (328.15 K, 25000 kPa): 1494.9 ± 1.1 kg/m3
mass density (328.15 K, 30000 kPa): 1498.2 ± 1.2 kg/m3
mass density (328.15 K, 35000 kPa): 1501.4 ± 1.4 kg/m3
mass density (328.15 K, 45000 kPa): 1507.4 ± 1.6 kg/m3
mass density (328.15 K, 55000 kPa): 1513 ± 1.8 kg/m3
mass density (328.15 K, 65000 kPa): 1518.4 ± 2 kg/m3
mass density (333.15 K, 100 kPa): 1472 ± 0.6 kg/m3
mass density (333.15 K, 2500 kPa): 1474.3 ± 0.7 kg/m3
mass density (333.15 K, 5000 kPa): 1476.2 ± 0.7 kg/m3
mass density (333.15 K, 7500 kPa): 1478.1 ± 0.8 kg/m3
mass density (333.15 K, 10000 kPa): 1480 ± 0.8 kg/m3
mass density (333.15 K, 15000 kPa): 1483.6 ± 0.9 kg/m3
mass density (333.15 K, 20000 kPa): 1487.2 ± 1 kg/m3
mass density (333.15 K, 25000 kPa): 1490.5 ± 1.1 kg/m3
mass density (333.15 K, 30000 kPa): 1493.9 ± 1.2 kg/m3
mass density (333.15 K, 35000 kPa): 1497 ± 1.3 kg/m3
mass density (333.15 K, 45000 kPa): 1503.2 ± 1.6 kg/m3
mass density (333.15 K, 55000 kPa): 1509 ± 1.8 kg/m3
mass density (333.15 K, 65000 kPa): 1514.3 ± 2 kg/m3

Source: the NIST ThermoML archive (doi:10.1016/j.fluid.2014.08.018)
